Reference: US20250339409A1, “USES OF PAN BET INHIBITORS” (VYNE THERAPEUTICS INC., priority 2021, published 2025)

Tested on: 92 target genes related to melanogenesis
Test: RHE vitiligo model: gene expression analysis (TaqMan low density array, RT-qPCR)
Format: cell-based, human
Design: key to FC of XPC gene expression / FC of GNAS gene expression / FC of ATP7A gene expression / FC of TYR gene expression / FC of RAB27A gene expression / FC of KITLG gene expression / FC of ADCY2 gene expression: fold change in expression by comparative Ct (ΔΔCt) method
Experimental: At the end of the treatments, total RNAs is extracted from 3 epidermis per condition (n=3) using the Qiagen RNeasy kit (Qiagen; 74106). Epidermis is rinsed with cold PBS and lysed in the ad hoc buffer provided in the kit. Extraction is performed according to the supplier's recommendations. The collected RNAs is stored at −80° C.
The RNA concentration is determined by spectrophotometric measurement (QIAxpert, Qiagen) and the RNA quality is analyzed by capillarity electrophoresis (Agilent Bioanalyzer 2100-Agilent RNA 6000 Nano Kit, 5067-1511). The integrity of the total RNA is assessed by visualization of intact ribosomal RNA bands. For the total RNA from higher eukaryotes, the size of the ribosomal bands should be 1.9 kb for the 18S-RNA and 4.7 kb for the 28S-RNA. The intensity of the band corresponding to the 28S RNA must be greater than the intensity of the band corresponding to the 18S-RNA (left profile, in image below). Small and diffuse bands representing low molecular weight RNAs (tRNA and 5S ribosomal RNA) may be present. Degradation of the RNA is apparent as a smearing of ribosomal RNA bands and high molecular weight background as shown below (right profile, in image below).
Reverse transcription is performed with the high-capacity RNA-to-cDNA kit (Applied Biosystems; 438706) from total RNA according to the manufacturer's instructions. The cDNAs are then stored at −20° C. until use in polymerase chain reactions.
The microfluidic TaqMan qPCR arrays (or TaqMan low density arrays) were designed by StratiCELL and manufactured on demand by Applied Biosystems. […]
The TaqMan arrays are processed as described by the manufacturer's instructions (Micro Fluidic Card Getting Started Guide, Applied Biosystems). Briefly, cDNAs are mixed with a specific buffer (TaqMan Fast Advanced Master Mix, 4444557, Applied Biosystems) before being injected into the arrays and dispersed into the wells by centrifugation. Arrays are sealed and qPCRs are run using the Quantstudio7 Real-Time PCR System (Applied Biosystems) and its software (QuantStudio real time PCR Software v1.3. software, Applied Biosystems).
Threshold cycles (Ct) are obtained for each gene. Results files are exported from the qPCR device and analyzed using the DataAssist Software (v3.00, Applied Biosystems) designed to perform relative quantification of gene expression using the comparative Ct (ΔΔCt) method, through a combination of statistical analysis.
The data obtained for the conditions treated with the formulations is compared to the untreated condition or to the condition treated with the vehicle. The effects of the cytokine cocktail stimulation are analyzed as well by comparison of the data obtained for the untreated control (unstimulated) to the data obtained for the stimulated untreated control. The Ct values are normalized to the mean Ct of 3 housekeeping genes present on the array. The maximum Ct cut-off value was fixed at 36 cycles meaning that Ct values above 36 are not considered in the analysis. […]

[1] = Stimulated + BETi1 0.001% vs Stimulated + BETi1 vehicle, results after correction
[2] = Stimulated + BETi1 0.001% vs Stimulated + BETi1 vehicle, results after correction, inconclusive, Ct of some replicates above 36
[3] = Stimulated + BETi1 0.001% vs Stimulated + BETi1 vehicle, results as originally presented (transcription error)
[4] = Stimulated + BETi1 0.001% vs Stimulated + BETi1 vehicle, results as originally presented (transcription error), inconclusive, Ct of some replicates above 36
[5] = Stimulated + BETi1 1% vs Stimulated + BETi1 vehicle, results after correction
[6] = Stimulated + BETi1 1% vs Stimulated + BETi1 vehicle, results after correction, inconclusive, Ct of some replicates above 36
[7] = Stimulated + BETi1 1% vs Stimulated + BETi1 vehicle, results as originally presented (transcription error for some genes)

Cn1cc(-c2cccc(O)c2Oc2ccccc2)c2cc[nH]c2c1=O [BETi1]
WNT signaling pathway upregulation, increase (1% concentration, relative to vehicle / stimulated control): 10 fold
FC of AP1M1 gene expression [1]: 0.7447
FC of APAF1 gene expression [1]: 1.5797
FC of BCL2 gene expression [1]: 0.7462
FC of HPS4 gene expression [1]: 0.6711
FC of POMC gene expression [1]: 0.5586
FC of ASIP gene expression [2]: 0.7104
FC of CALML6 gene expression [2]: 0.7104
FC of GNAO1 gene expression [2]: 0.7104
FC of AP1M1 gene expression [3]: 0.6303
FC of APAF1 gene expression [3]: 3.5532
FC of BCL2 gene expression [3]: 1.3312
FC of HPS4 gene expression [3]: 0.4147
FC of POMC gene expression [3]: 0.3574
FC of ASIP gene expression [4]: 0.6303
FC of GNAO1 gene expression [4]: 0.6303
FC of AIM1 gene expression [5]: 0.4502
FC of AP1S1 gene expression [5]: 0.6116
FC of ATP2A2 gene expression [5]: 0.2632
FC of ATP7A gene expression [5]: 0.4094
FC of BAD gene expression [5]: 0.2547
FC of BCL2 gene expression [5]: 0.5772
FC of CREBBP gene expression [5]: 0.3195
FC of DVL1 gene expression [5]: 0.4492
FC of EDN1 gene expression [5]: 0.0395
FC of EDNRB gene expression [5]: 0.1544
FC of GADD45A gene expression [5]: 0.2375
FC of GNAI1 gene expression [5]: 0.3672
FC of GNAS gene expression [5]: 0.4273
FC of HPS1 gene expression [5]: 0.5127
FC of HPS4 gene expression [5]: 0.3088
FC of IL1A gene expression [5]: 0.0124
FC of IL1B gene expression [5]: 0.0208
FC of KIT gene expression [5]: 0.6404
FC of MAPK14 gene expression [5]: 0.3927
FC of MLPH gene expression [5]: 0.3039
FC of MYO5A gene expression [5]: 0.4524
FC of OCA2 gene expression [5]: 0.293
FC of PCNA gene expression [5]: 7.0134
FC of POMC gene expression [5]: 0.1039
FC of PTGER3 gene expression [5]: 0.4259
FC of RAB3A gene expression [5]: 14.5685
FC of RAB27A gene expression [5]: 0.2763
FC of RAB32 gene expression [5]: 0.1471
FC of RAB38 gene expression [5]: 0.3579
FC of SLC24A5 gene expression [5]: 0.1051
FC of SNAP25 gene expression [5]: 0.2366
FC of SOX9 gene expression [5]: 0.0882
FC of SOX10 gene expression [5]: 0.4034
FC of STX6 gene expression [5]: 0.3683
FC of TYR gene expression [5]: 0.405
FC of USF1 gene expression [5]: 0.497
FC of WNT16 gene expression [5]: 10.0801
FC of XPC gene expression [5]: 1.6569
FC of ASIP gene expression [6]: 0.4753
FC of CALML6 gene expression [6]: 0.4753
FC of CAMK2A gene expression [6]: 0.4753
FC of GNAO1 gene expression [6]: 0.4753
FC of PTGER1 gene expression [6]: 0.4753
FC of AIM1 gene expression [7]: 0.4753
FC of AP1S1 gene expression [7]: 0.727
FC of ATP2A2 gene expression [7]: 0.293
FC of ATP7A gene expression [7]: 0.4273
FC of BAD gene expression [7]: 0.2763
FC of BCL2 gene expression [7]: 0.6404
FC of CREBBP gene expression [7]: 0.3672
FC of DVL1 gene expression [7]: 0.4524
FC of EDN1 gene expression [7]: 0.1039
FC of EDNRB gene expression [7]: 0.2375
FC of GADD45A gene expression [7]: 0.2632
FC of GNAI1 gene expression [7]: 0.3927
FC of GNAS gene expression [7]: 0.4502
FC of HPS1 gene expression [7]: 0.6116
FC of HPS4 gene expression [7]: 0.3579
FC of IL1A gene expression [7]: 0.0395
FC of IL1B gene expression [7]: 0.0882
FC of KIT gene expression [7]: 1.6569
FC of MAPK14 gene expression [7]: 0.405
FC of MLPH gene expression [7]: 0.3195
FC of MYO5A gene expression [7]: 0.4753
